Read-outs that look alike come from different tables or passages of the source.
Tests used:
[1] = biological target: recombinant RSV complex (Human respiratory syncytial virus A, UniProt P28887); experiment: RSV Polymerase Inhibition Assay; assay type: biochemical
How it was run: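 10 nM recombinant RSV polymerase complex in Tris-HCl pH 7.5, 6 mM MgCl2 with RNA oligonucleotide template and radionucleotides, incubated 2 h at 30 °C with increasing inhibitor concentrations. Reaction stopped with EDTA; radiolabeled RNA product counted by scintillation.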

[2] = tested on: RSV replicon; experiment: microbe, parasite or virus in culture; assay type: cell-based; settings: human respiratory syncytial virus, read-out: EC50, the concentration of the drug required for reducing RSV replicon RNA by 50%
[3] = Cytotoxicity Determination (CCK-8, without addition of virus); assay type: cell-based; settings: human
How it was run: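 HEp-2 cells were seeded at 1,500 cells/well one day before compound addition. Compounds were tested without virus in duplicate over 7 points from 100 μM in 1/2 steps, with 1% final DMSO, 5 days at 37 °C, 5% CO2. Viability was read by CCK-8 after 3-4 hours.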

[4] = tested on: Respiratory Syncytial Virus (RSV) long strain; experiment: microbe, parasite or virus in culture; assay type: cell-based; settings: human respiratory syncytial virus, Tables A and B list compounds by EC50 band
How it was run: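 HEp-2 cells infected with 100 TCID50 virus per well, compounds in duplicate, 9-point 1/3 dilutions from 100 μM or 1 μM, 1% DMSO. After 5 days at 37 °C, cell viability (CPE protection) read by CCK-8 absorbance at 450 nm, 630 nm background.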

[5] = 50% cytotoxicity concentration (CC50)
[6] = HEp-2, 120 h, read-out: 50% effective concentration (EC50), HEp-2 cells infected with RSV long strain, 5 days, CCK-8 readout
[7] = 120 h, read-out: 50% effective concentration (EC50), HEp-2 cells infected with RSV long strain, 5 days, CCK-8 readout

recombinant RSV complex, sequence (P28887 whole entry): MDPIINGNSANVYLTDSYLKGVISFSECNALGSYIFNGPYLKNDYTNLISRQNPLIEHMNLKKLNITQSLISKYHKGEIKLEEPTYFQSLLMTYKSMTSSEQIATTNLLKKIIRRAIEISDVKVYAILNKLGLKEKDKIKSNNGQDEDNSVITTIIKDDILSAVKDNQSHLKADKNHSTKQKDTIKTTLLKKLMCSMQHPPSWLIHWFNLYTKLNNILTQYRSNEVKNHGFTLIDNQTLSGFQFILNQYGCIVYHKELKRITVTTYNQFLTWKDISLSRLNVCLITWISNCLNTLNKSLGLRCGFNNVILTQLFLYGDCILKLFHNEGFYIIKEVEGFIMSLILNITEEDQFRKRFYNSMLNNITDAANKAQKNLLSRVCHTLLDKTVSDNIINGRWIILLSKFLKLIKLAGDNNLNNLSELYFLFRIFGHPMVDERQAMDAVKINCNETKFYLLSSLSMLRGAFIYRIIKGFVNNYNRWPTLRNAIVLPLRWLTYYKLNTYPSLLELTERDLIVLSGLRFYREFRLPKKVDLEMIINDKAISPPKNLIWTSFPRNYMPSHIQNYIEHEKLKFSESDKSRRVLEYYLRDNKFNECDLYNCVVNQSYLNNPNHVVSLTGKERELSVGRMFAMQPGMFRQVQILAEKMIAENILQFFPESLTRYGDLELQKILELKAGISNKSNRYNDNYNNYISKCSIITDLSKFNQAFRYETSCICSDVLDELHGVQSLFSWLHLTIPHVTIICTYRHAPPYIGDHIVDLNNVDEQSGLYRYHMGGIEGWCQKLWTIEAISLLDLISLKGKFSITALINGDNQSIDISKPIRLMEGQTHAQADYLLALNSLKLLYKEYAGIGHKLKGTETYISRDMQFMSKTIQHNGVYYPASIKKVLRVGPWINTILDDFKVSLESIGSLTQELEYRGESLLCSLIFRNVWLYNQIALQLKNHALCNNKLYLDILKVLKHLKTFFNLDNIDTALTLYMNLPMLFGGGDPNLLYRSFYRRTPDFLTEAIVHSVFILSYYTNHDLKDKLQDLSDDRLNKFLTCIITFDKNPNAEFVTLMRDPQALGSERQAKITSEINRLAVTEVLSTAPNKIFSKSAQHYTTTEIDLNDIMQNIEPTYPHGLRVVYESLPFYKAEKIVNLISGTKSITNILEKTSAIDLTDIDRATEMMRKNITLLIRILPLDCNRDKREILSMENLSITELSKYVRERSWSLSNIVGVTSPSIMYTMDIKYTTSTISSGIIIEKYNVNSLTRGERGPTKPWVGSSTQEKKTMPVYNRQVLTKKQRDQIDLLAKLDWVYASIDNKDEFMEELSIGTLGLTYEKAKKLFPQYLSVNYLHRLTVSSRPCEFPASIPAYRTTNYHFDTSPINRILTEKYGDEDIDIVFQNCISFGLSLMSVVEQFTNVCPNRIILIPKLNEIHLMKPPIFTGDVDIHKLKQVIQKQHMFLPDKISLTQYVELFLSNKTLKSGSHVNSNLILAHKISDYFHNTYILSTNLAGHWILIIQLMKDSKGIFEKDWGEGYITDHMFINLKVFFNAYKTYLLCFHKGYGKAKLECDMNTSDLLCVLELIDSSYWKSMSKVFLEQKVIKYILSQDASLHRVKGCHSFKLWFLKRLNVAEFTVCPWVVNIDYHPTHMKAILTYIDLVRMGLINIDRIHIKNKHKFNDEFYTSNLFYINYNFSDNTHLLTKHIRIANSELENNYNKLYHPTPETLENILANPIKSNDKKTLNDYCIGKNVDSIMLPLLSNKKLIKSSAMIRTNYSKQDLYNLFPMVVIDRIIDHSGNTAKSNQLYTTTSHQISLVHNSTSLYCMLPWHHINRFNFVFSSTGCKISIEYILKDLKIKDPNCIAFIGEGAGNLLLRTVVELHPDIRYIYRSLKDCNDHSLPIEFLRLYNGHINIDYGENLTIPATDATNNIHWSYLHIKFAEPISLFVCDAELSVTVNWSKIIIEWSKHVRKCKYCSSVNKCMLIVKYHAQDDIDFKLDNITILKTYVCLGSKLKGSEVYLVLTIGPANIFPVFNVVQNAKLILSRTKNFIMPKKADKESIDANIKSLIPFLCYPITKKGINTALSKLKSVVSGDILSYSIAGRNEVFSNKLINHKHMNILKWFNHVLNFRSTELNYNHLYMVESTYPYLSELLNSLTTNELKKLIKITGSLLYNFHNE
recombinant RSV complex, sequence (P03421 whole entry, further chain): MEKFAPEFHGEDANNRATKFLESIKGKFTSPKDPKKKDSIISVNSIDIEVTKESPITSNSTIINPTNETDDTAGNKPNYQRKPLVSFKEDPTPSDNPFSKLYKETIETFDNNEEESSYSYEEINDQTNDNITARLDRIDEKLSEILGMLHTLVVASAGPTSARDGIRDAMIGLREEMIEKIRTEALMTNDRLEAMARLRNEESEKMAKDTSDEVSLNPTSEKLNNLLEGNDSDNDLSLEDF

COc1cc(C(=O)NCC(O)(c2cc(C(C)(C)NC3CCC3)cc(-c3ccc(F)c(Cl)c3)n2)C(F)(F)F)ccc1OC1CC1 (stereo not shown) [Compound 575]
IC50 [1]: < 1000 nM | EC50 [2]: < 1000 nM | CC50 at 5 days [3, 5]: 10000 to 100000 nM | EC50 [4, 6]: < 1000 nM

COc1cc(C(=O)NCC(C)(O)c2ccc(OC)c(-c3ccc(F)c(Cl)c3)n2)ccc1OC1CC1 (stereo not shown) [Compound 369]
IC50 [1]: < 1000 nM | EC50 [2]: < 1000 nM | CC50 at 5 days [3, 5]: 10000 to 100000 nM | EC50 [4, 6]: < 1000 nM

COc1ccc(C(O)(CO)CNC(=O)c2ccc(OC3CCNC3=O)c(Cl)c2)nc1-c1ccc(F)c(Cl)c1 (stereo not shown) [Compound 452]
IC50 [1]: < 1000 nM | EC50 [2]: < 1000 nM | CC50 at 5 days [3, 5]: 10000 to 100000 nM | EC50 [4, 6]: < 1000 nM

CCNC(=O)NC(C)(C)c1cc(-c2ccc(F)c(Cl)c2)nc(C(O)(CNC(=O)c2ccc(OC3CC3)c(OC)c2)C(F)(F)F)c1 (stereo not shown) [Compound 387]
IC50 [1]: < 1000 nM | EC50 [2]: < 1000 nM | CC50 at 5 days [3, 5]: > 100000 nM | EC50 [4, 6]: < 1000 nM

COc1cc(C(=O)NCC(O)(c2cc(C(C)N)cc(-c3ccc(F)c(Cl)c3)n2)C(F)(F)F)ccc1OC1CC1 (stereo not shown) [Compound 459]
IC50 [1]: < 1000 nM | EC50 [2]: < 1000 nM | CC50 at 5 days ([3]; no virus, 5 days, CCK-8 readout, Tables C and D list compounds by CC50 band): 10000 to 100000 nM | EC50 [4, 6]: < 1000 nM

CNC(C)c1cc(-c2ccc(F)c(Cl)c2)nc(C(O)(CNC(=O)c2ccc(OC3CC3)c(OC)c2)C(F)(F)F)c1 (stereo not shown) [Compound 466]
IC50 [1]: < 1000 nM | EC50 [2]: < 1000 nM | CC50 at 5 days [3, 5]: 10000 to 100000 nM | EC50 [4, 6]: < 1000 nM

COc1cc(C(=O)NCC(O)(c2ccc(OC)c(-c3ccc(F)c(Cl)c3)n2)C2CC2)ccc1OCCO (stereo not shown) [Compound 241]
IC50 [1]: < 1000 nM | EC50 [2]: < 1000 nM | CC50 at 5 days [3, 5]: 10000 to 100000 nM | EC50 [4, 6]: < 1000 nM

COc1cc(C(=O)NCC(O)(c2cc(C(C)(N)CF)cc(-c3ccc(F)c(Cl)c3)n2)C(F)(F)F)ccc1OC1CC1 (stereo not shown) [Compound 534]
IC50 [1]: < 1000 nM | EC50 [2]: < 1000 nM | CC50 at 5 days [3, 5]: 10000 to 100000 nM | EC50 [4, 6]: < 1000 nM

COc1cc(C(=O)NCC(O)(c2ccc(OC)c(-c3ccc(F)c(Cl)c3)n2)C(F)(F)F)ccc1OC1CC1 (stereo not shown) [Compound 370]
IC50 [1]: < 1000 nM | EC50 [2]: < 1000 nM | CC50 at 5 days [3, 5]: > 100000 nM | EC50 [4, 7]: < 1000 nM

CNC(C)(C)c1cc(-c2ccc(F)c(Cl)c2)nc(C(O)(CNC(=O)c2cc(OC)c3ncccc3c2)C(F)(F)F)c1 (stereo not shown) [Compound 488]
IC50 [1]: < 1000 nM | EC50 [2]: < 1000 nM | CC50 at 5 days [3, 5]: 10000 to 100000 nM | EC50 [4, 6]: < 1000 nM

COc1cc(C(=O)NCC(O)(c2cc(C(C)(C)N)cc(-c3ccc(F)cc3)n2)C(F)(F)F)ccc1OC1CC(O)C1 (stereo not shown) [Compound 596]
IC50 [1]: < 1000 nM | EC50 [2]: < 1000 nM | CC50 at 5 days [3, 5]: 10000 to 100000 nM | EC50 [4, 6]: < 1000 nM

C#CC(O)(CNC(=O)c1ccc(OCCF)c(OC)c1)c1ccc(OC)c(-c2ccc(F)c(Cl)c2)n1 (stereo not shown) [Compound 127]
IC50 [1]: < 1000 nM | EC50 [2]: 1000 to 50000 nM | CC50 at 5 days [3, 5]: 10000 to 100000 nM | EC50 [4, 6]: < 1000 nM

COc1cc(C(=O)NCC(O)(c2cc(C(C)(C)N)cc(-c3ccc(F)cc3)n2)C(F)(F)F)ccc1OCC(N)=O (stereo not shown) [Compound 580]
IC50 [1]: < 1000 nM | EC50 [2]: < 1000 nM | CC50 at 5 days [3, 5]: > 100000 nM | EC50 [4, 7]: < 1000 nM

CCOc1ccc(C(=O)NCC(O)(c2cc3c(c(-c4ccc(F)c(Cl)c4)n2)OCC3(C)N)C(F)(F)F)cc1OC (stereo not shown) [Compound 498]
IC50 [1]: < 1000 nM | EC50 [2]: < 1000 nM | CC50 at 5 days [3, 5]: 10000 to 100000 nM | EC50 [4, 6]: < 1000 nM

COc1cc(C(=O)NCC(F)(c2ccc(OC)c(-c3ccc(F)c(Cl)c3)n2)C(F)(F)F)ccc1OCC(N)=O (stereo not shown) [Compound 343]
IC50 [1]: < 1000 nM | EC50 [2]: < 1000 nM | CC50 at 5 days [3, 5]: 10000 to 100000 nM | EC50 [4, 6]: < 1000 nM

COc1cc(C(=O)NCC(O)(c2cc(C(C)(N)CO)cc(-c3ccc(F)c(Cl)c3)n2)C(F)(F)F)ccc1OC1CC1 (stereo not shown) [Compound 533]
IC50 [1]: < 1000 nM | EC50 [2]: < 1000 nM | CC50 at 5 days [3, 5]: 10000 to 100000 nM | EC50 [4, 6]: < 1000 nM

COc1cc(C(=O)NCC(N)(c2ccc(OC)c(-c3ccc(F)c(Cl)c3)n2)C(F)(F)F)ccc1OC1CC1 (stereo not shown) [Compound 503]
IC50 [1]: < 1000 nM | EC50 [2]: < 1000 nM | CC50 at 5 days [3, 5]: 10000 to 100000 nM | EC50 [4, 6]: < 1000 nM

COc1cc(C(=O)NCC(O)(c2ccc(CN)c(-c3ccc(F)cc3)n2)C(F)(F)F)ccc1OC1CC1 (stereo not shown) [Compound 514]
IC50 [1]: < 1000 nM | EC50 [2]: < 1000 nM | CC50 at 5 days [3, 5]: 10000 to 100000 nM | EC50 [4, 6]: < 1000 nM

COc1cc(C(=O)NCC(O)(c2cc3c(c(-c4ccc(F)cc4)n2)OCC3(C)N)C(F)(F)F)cc2cccnc12 (stereo not shown) [Compound 635]
IC50 [1]: < 1000 nM | EC50 [2]: < 1000 nM | CC50 at 5 days [3, 5]: 10000 to 100000 nM | EC50 [4, 6]: < 1000 nM

COc1cc(C(=O)NCC(C)(O)c2ccc(OC)c(-c3c[nH]c4c(F)cccc34)n2)ccc1OCC(N)=O (stereo not shown) [Compound 419]
IC50 [1]: < 1000 nM | EC50 [2]: < 1000 nM | CC50 at 5 days [3, 5]: > 100000 nM | EC50 [4, 6]: < 1000 nM

COc1cc(C(=O)NCC(O)(c2cc(C(C)(C)N)cc(-c3ccc(F)c(Cl)c3)n2)C(F)(F)F)ccc1OCCO (stereo not shown) [Compound 489]
IC50 [1]: < 1000 nM | EC50 [2]: < 1000 nM | CC50 at 5 days [3, 5]: 10000 to 100000 nM | EC50 [4, 6]: < 1000 nM

CCC1(N)COc2c1cc(C(O)(CNC(=O)c1ccc(OCCO)c(OC)c1)C(F)(F)F)nc2-c1ccc(F)cc1 (stereo not shown) [Compound 530]
IC50 [1]: < 1000 nM | EC50 [2]: < 1000 nM | CC50 at 5 days [3, 5]: 10000 to 100000 nM | EC50 [4, 7]: < 1000 nM

COc1cc(C(=O)NCC(O)(c2cc3c(c(-c4ccc(F)c(Cl)c4)n2)OCC3(C)N)C(F)(F)F)ccc1OC1CC1 (stereo not shown) [Compound 483]
IC50 [1]: < 1000 nM | EC50 [2]: < 1000 nM | CC50 at 5 days [3, 5]: 10000 to 100000 nM | EC50 [4, 6]: < 1000 nM

COc1cc(C(=O)NCC(O)(c2cc(C(C)(C)N)cc(-c3ccc(C#N)cc3)n2)C(F)(F)F)ccc1OCCO (stereo not shown) [Compound 623b]
IC50 [1]: < 1000 nM | EC50 [2]: < 1000 nM | CC50 at 5 days [3, 5]: > 100000 nM | EC50 [4, 6]: < 1000 nM

COc1cc(C(=O)NCC(O)(c2ccc(OC)c(-c3ccc(F)c(Cl)c3)n2)C2CC2)ccc1Cn1cncn1 (stereo not shown) [Compound 434]
IC50 [1]: < 1000 nM | EC50 [2]: < 1000 nM | CC50 at 5 days [3, 5]: 10000 to 100000 nM | EC50 [4, 6]: < 1000 nM

COC(=O)CNC(C)(C)c1cc(-c2ccc(F)c(Cl)c2)nc(C(O)(CNC(=O)c2ccc(OC3CC3)c(OC)c2)C(F)(F)F)c1 (stereo not shown) [Compound 500]
IC50 [1]: < 1000 nM | EC50 [2]: < 1000 nM | CC50 at 5 days [3, 5]: 10000 to 100000 nM | EC50 [4, 7]: < 1000 nM

CCNC(C)(C)c1cc(-c2ccc(F)cc2)nc(C(O)(CNC(=O)c2ccc(OC3CC3)c(OC)c2)C(F)(F)F)c1 (stereo not shown) [Compound 388]
IC50 [1]: < 1000 nM | EC50 [2]: < 1000 nM | CC50 at 5 days [3, 5]: 10000 to 100000 nM | EC50 [4, 6]: < 1000 nM

COc1cc(C(=O)NCC(C)(O)c2cc3c(c(-c4ccc(F)c(Cl)c4)n2)OCC3(C)C)ccc1OCCO (racemic) [Compound 166]
IC50 [1]: < 1000 nM | EC50 [2]: < 1000 nM | CC50 at 5 days [3, 5]: 10000 to 100000 nM | EC50 [4, 6]: < 1000 nM

COc1cc(C(=O)NCC(O)(c2cc(C(N)CO)cc(-c3ccc(F)c(Cl)c3)n2)C(F)(F)F)ccc1OC1CC1 (stereo not shown) [Compound 528]
IC50 [1]: < 1000 nM | EC50 [2]: < 1000 nM | CC50 at 5 days [3, 5]: 10000 to 100000 nM | EC50 [4, 6]: < 1000 nM

COc1cc(C(=O)NCC(O)(c2cc(C(C)(C)NC(C)=N)cc(-c3ccc(F)c(Cl)c3)n2)C(F)(F)F)ccc1OC1CC1 (stereo not shown) [Compound 579]
IC50 [1]: < 1000 nM | EC50 [2]: < 1000 nM | CC50 at 5 days [3, 5]: 10000 to 100000 nM | EC50 [4, 6]: < 1000 nM

COc1cc(C(=O)NCC(O)(CC2CNC2)c2ccc(OC)c(-c3ccc(F)c(Cl)c3)n2)ccc1OC1CC1 (stereo not shown) [Compound 461]
IC50 [1]: < 1000 nM | EC50 [2]: 1000 to 50000 nM | CC50 at 5 days [3, 5]: 10000 to 100000 nM | EC50 [4, 6]: < 1000 nM
